In US20160193206A1, “BET-PROTEIN-INHIBITING DIHYDROPYRIDOPYRAZINONES” (BAYER PHARMA AKTIENGESELLSCHAFT, priority 2012, published 2016) one finds IC50 data, which are given here for twelve molecules.

In general, IC50 refers to the concentration that gives 50% inhibition.

Test [1] concerns the target T1, BRD4 bromo domain 1 [BRD4(1)] (Homo sapiens, UniProt O60885).
T1 construct: N-terminally His6-tagged BRD4(1) (amino acids 67-152); made in house; host or cells: E. coli
Briefly: BRD4(1)/acetylated peptide H4 binding assay (TR-FRET). The following applies: inhibition of interaction between His6-tagged BRD4(1) (amino acids 67-152) and acetylated histone H4 peptide. An excerpt: (§1) Protein-Protein Interaction Assay: BRD4/Acetylated Peptide H4 Binding Assay
1. Assay Description for BRD4 Bromo Domain 1 [BRD4(1)]
To assess the BRD4(1) binding strength of the substances described in this application, the ability thereof to inhibit the interaction between BRD4(1) and acetylated histone H4 in a dose-dependent manner was quantified.
(§2) For this purpose, a time-resolved fluorescence resonance energy transfer (TR-FRET) assay was used, which measures the binding between N-terminally His6-tagged BRD4(1) (amino acids 67-152) and a synthetic acetylated histone H4 (Ac-H4) peptide with sequence GRGK(Ac)GGK(Ac)GLGK(Ac)GGAK(Ac)RHGSGSK-biotin. The recombinant BRD4(1) protein produced in-house according to Filippakopoulos et al., Cell, 2012, 149:214-231 was expressed in E. coli and purified by means of (Ni-NTA) affinity and (Sephadex G-75) size exclusion chromatography. The Ac-H4 peptide can be purchased, for example, from Biosyntan (Berlin, Germany).
(§3) In the assay, typically 11 different concentrations of each substance (0.1 nM, 0.33 nM, 1.1 nM, 3.8 nM, 13 nM, 44 nM, 0.15 μM, 0.51 μM, 1.7 μM, 5.9 μM and 20 μM) were analysed as duplicates on the same microtitre plate. For this purpose, 100-fold concentrated solutions in DMSO were prepared by serial dilutions (1:3.4) of a 2 mM stock solution into a clear, 384-well microtitre plate (Greiner Bio-One, Frickenhausen, Germany). From this, 50 nl were transferred into a black test plate (Greiner Bio-One, Frickenhausen, Germany). The test was started by the addition of 2 μl of a 2.5-fold concentrated BRD4(1) solution (final concentration typically 10 nM in the 5 μl of reaction volume) in aqueous assay buffer [50 mM HEPES pH 7.5, 50 mM sodium chloride (NaCl), 0.25 mM CHAPS and 0.05% serum albumin (BSA)] to the substances in the test plate. This was followed by a 10-minute incubation step at 22° C. for the pre-equilibration of putative complexes between BRD4(1) and the substances.
(§4) The mixture was then incubated in the dark at 22° C. for one hour and then at 4° C. for at least 3 hours and for no longer than overnight. The formation of BRD4(1)/Ac-H4 complexes was determined by the measurement of the resonance energy transfer from the streptavidin-Eu cryptate to the anti-6His-XL665 antibody present in the reaction. For this purpose, the fluorescence emission was measured at 620 nm and 665 nm after excitation at 330-350 nm in a TR-FRET measuring instrument, for example a Rubystar or Pherastar (both from BMG Lab Technologies, Offenburg, Germany) or a Viewlux (Perkin-Elmer). The ratio of the emissions at 665 nm and at 622 nm was taken as an indicator of the amount of BRD4(1)/Ac-H4 complexes formed.
The data (ratios) obtained were normalized, with 0% inhibition corresponding to the mean from the measurements for a set of controls (typically 32 data points) in which all the reagents were present. In these, in place of test substances, 50 nl of DMSO (100%) were used. Inhibition of 100% corresponded to the mean from the measurements for a set of controls (typically 32 data points) in which all the reagents except BRD4(1) were present. The IC50 was determined by regression analysis based on a 4-parameter equation (minimum, maximum, IC50, Hill; Y=max+(min−max)/(1+(X/IC50)Hill).
For orientation: TR-FRET usually uses a lanthanide donor and a delayed reading to cut background.

The target in test [2] is T2, BRD4 bromo domain 2 [BRD4(2)] (Homo sapiens, UniProt O60885).
T2 construct: N-terminally His6-tagged BRD4(2) (amino acids 357-445); made in house; host or cells: E. coli
Briefly: BRD4(2)/acetylated peptide H4 binding assay (TR-FRET). The following applies: inhibition of interaction between His6-tagged BRD4(2) (amino acids 357-445) and acetylated histone H4 peptide.
Source text: as §1
2. Assay Description for BRD4 Bromo Domain 2 [BRD4(2)]
To assess the BRD4(2) binding strength of the substances described in this application, the ability thereof to inhibit the interaction between BRD4(2) and acetylated histone H4 in a dose-dependent manner was quantified.
as §2, with “BRD4(2)” for “BRD4(1)”, “357-445)” for “67-152)”, “SGRGK(Ac)GGK(Ac)GLGK(Ac)GGAK(Ac)RHRKVLRDNGSGSK-biotin.” for “GRGK(Ac)GGK(Ac)GLGK(Ac)GGAK(Ac)RHGSGSK-biotin.”
as §3, with “concentrated BRD4(2)” for “concentrated BRD4(1)”, “typically 100” for “typically 10”, “chloride (NaCl); 50 mM potassium fluoride (KF);” for “chloride (NaCl),”, “between BRD4(2)” for “between BRD4(1)”
as §4, with “BRD4(2)/Ac-H4” for “BRD4(1)/Ac-H4”, “chelate” for “cryptate”
The data (ratios) obtained were normalized, with 0% inhibition corresponding to the mean from the measurements for a set of controls (typically 32 data points) in which all the reagents were present. In these, in place of test substances, 50 nl of DMSO (100%) were used. Inhibition of 100% corresponded to the mean from the measurements for a set of controls (typically 32 data points) in which all the reagents except BRD4(2) were present. The IC50 was determined by regression analysis based on a 4-parameter equation (minimum, maximum, IC50, Hill; Y=max+(min−max)/(1+(X/IC50)Hill).

As for `C[C@@H]1C(=O)N(C)c2ccc(Nc3ccc(C(=O)NC4CCC(N5CCC(F)(F)CC5)CC4)cc3)nc2N1C1CCCCC1` (stereo partly drawn) [Example 71, 4-{[(3R)-4-Cyclohexyl-1,3-dimethyl-2-oxo-1,2,3,4-tetrahydropyrido[2,3-b]pyrazin-6-l]amino}-N-[4-(4,4-difluoropiperidin-1-yl)cyclohexyl]benzamide], the IC50 in test [1] stood at 961 nM; in test [2], 445 nM.

On to `COc1cc(C(=O)N2CC3(COC3)C2)ccc1Nc1ccc2c(n1)N(C1CCCCC1)[C@H](C)C(=O)N2C` [Example 73, (3R)-4-Cyclohexyl-6-{[2-methoxy-4-(2-oxa-6-azaspiro[3.3]hept-6-ylcarbonyl)phenyl]amino}-1,3-dimethyl-3,4-dihydropyrido[2,3-b]pyrazin-2(1H)-one], for which the values for the IC50 in test [1] and in test [2] were 273 nM and 196 nM, respectively.

Consider `COc1cc(C(=O)N2CC3(CCS3(=O)=O)C2)ccc1Nc1ccc2c(n1)N(C1CCCCC1)[C@H](C)C(=O)N2C` [Example 74, (3R)-4-Cyclohexyl-6-({4-[(1,1-dioxido-1-thia-6-azaspiro[3.3]hept-6-yl)carbonyl]-2-methoxyphenyl}amino)-1,3-dimethyl-3,4-dihydropyrido[2,3-b]pyrazin-2(1H)-one], for which the IC50 came to 300 nM in test [1] and 156 nM in test [2].

On to `C[C@@H]1C(=O)N(C)c2ccc(Nc3ccc(C(=O)N4CCN(C(=O)OC(C)(C)C)CC4)cc3)nc2N1Cc1ccccc1` [Example 76, tert-Butyl 4-(4-{[(3R)-4-benzyl-1,3-dimethyl-2-oxo-1,2,3,4-tetrahydropyrido[2,3-b]pyrazin-6-yl]amino}benzoyl)piperazine-1-carboxylate], for which the figures for the IC50 in test [1] and in test [2] were 840 nM and 273 nM, respectively.

Consider `COc1cc(C(=O)N2CC3(CCS3(=O)=O)C2)ccc1Nc1ccc2c(n1)N(C1CCCCCC1)[C@H](C)C(=O)N2C` [Example 84, (3R)-4-Cycloheptyl-6-({4-[(1,1-dioxido-1-thia-6-azaspiro[3.3]hept-6-yl)carbonyl]-2-methoxyphenyl}amino)-1,3-dimethyl-3,4-dihydropyrido[2,3-b]pyrazin-2(1H)-one], for which the IC50 in test [1] amounted to 448 nM; in test [2], 165 nM.

As for `C[C@@H]1C(=O)N(C)c2ccc(Nc3ccc(C(=O)NC4CN(C)C4)cc3)nc2N1C1CCCCCC1` [Example 85, 4-{[(3R)-4-Cycloheptyl-1,3-dimethyl-2-oxo-1,2,3,4-tetrahydropyrido[2,3-b]pyrazin-6-yl]amino}-N-(1-methylazetidin-3-yl)benzamide], the IC50 came out at 186 nM in test [1] and 98 nM in test [2].

Consider `CC(=O)N1CCC(NC(=O)c2ccc(Nc3ccc4c(n3)N(C3CCCCCC3)[C@H](C)C(=O)N4C)cc2)CC1` [Example 86, N-(1-Acetylpiperidin-4-yl)-4-{[(3R)-4-cycloheptyl-1,3-dimethyl-2-oxo-1,2,3,4-tetrahydropyrido[2,3-b]pyrazin-6-yl]amino}benzamide], for which the results for the IC50 in test [1] and in test [2] were 180 nM and 100 nM, respectively.

As to `COc1cc(C(=O)NC2CN(C)C2)ccc1Nc1ccc2c(n1)N(C1CCCCCC1)[C@H](C)C(=O)N2C` [Example 87, 4-{[(3R)-4-Cycloheptyl-1,3-dimethyl-2-oxo-1,2,3,4-tetrahydropyrido[2,3-b]pyrazin-6-yl]amino}-3-methoxy-N-(1-methylazetidin-3-yl)benzamide], the IC50 in test [1] was 216 nM; in test [2], 75 nM.

Turning to `COc1cc(C(=O)NC2CCN(C(C)=O)CC2)ccc1Nc1ccc2c(n1)N(C1CCCCCC1)[C@H](C)C(=O)N2C` [Example 88, N-(1-Acetylpiperidin-4-yl)-4-{[(3R)-4-cycloheptyl-1,3-dimethyl-2-oxo-1,2,3,4-tetrahydropyrido[2,3-b]pyrazin-6-yl]amino}-3-methoxybenzamide], the IC50 in test [1] is 339 nM; in test [2] it was 146 nM.

Regarding `C[C@@H]1C(=O)N(C)c2ccc(Nc3ccc(C(=O)NCCN4CCN(C)CC4)cc3)nc2N1C1CCCCCC1` [Example 89, 4-{[(3R)-4-Cycloheptyl-1,3-dimethyl-2-oxo-1,2,3,4-tetrahydropyrido[2,3-b]pyrazin-6-yl]amino}-N-{2-(4-methylpiperazin-1-yl)ethyl]benzamide], the IC50 in test [1] came out at 185 nM; in test [2], 93 nM.

For the molecule `C[C@@H]1C(=O)N(C)c2ccc(Nc3ccc(C(=O)NC4CCC(O)CC4)cc3)nc2N1C1CCCCCC1` (stereo partly drawn) [Example 90, 4-{[(3R)-4-Cycloheptyl-1,3-dimethyl-2-oxo-1,2,3,4-tetrahydropyrido[2,3-b]pyrazin-6-yl]amino}-N-(4-hydroxycyclohexyl)benz-amide], the IC50 worked out at 341 nM in test [1] and 208 nM in test [2].

For the molecule `CC(C)N1CCN(C(=O)c2ccc(Nc3ccc4c(n3)N(C3CCCCCC3)[C@H](C)C(=O)N4C)cc2)CC1` [Example 92, (3R)-4-Cylcoheptyl-1,3-dimethyl-6-[(4-{[4-(propan-2-yl)piperazin-1-yl]carbonyl}phenyl)amino]-3,4-dihydropyrido[2,3-b]pyrazin-2(1H)-one], the IC50 in test [1] was determined as 325 nM; in test [2], 209 nM.
